Measurements taken from patent US9249129B2, “Morpholino substituted urea derivatives as mTOR inhibitors” (CELLZOME LIMITED, priority 2010, dated 2016).

Legend:
Test in all cases: kinobeads assay with mass spectrometry detection of kinases (kinase selectivity profile)
Format in all cases: binding
[1] = target: T1, kinases (kinome) (Homo sapiens, UniProt O60885); settings: BRD4 (Atypical), IPI00440727
T1 construct: determined in kinobeads assays with mass spectrometry detection of kinases as described previously; endogenous in cells; host or cells: cell lysate
Text: (§1) The protein kinase complement of the human genome (the kinome) was described previously (Manning et al., 2002. Science 298(5600):1912-1934). Sequence accession numbers are defined by the International Protein Index (IPI) (Kersey et al., 2004. Proteomics 4(7):1985-1988).

[2] = target: T2, kinases (kinome) (Homo sapiens, UniProt P24941); settings: CDK2 (CMGC), IPI00031681
T2 construct: determined in kinobeads assays with mass spectrometry detection of kinases as described previously; endogenous in cells; host or cells: cell lysate
Text: as §1

[3] = target: T3, kinases (kinome) (Homo sapiens, UniProt P28482); settings: Erk2 (CMGC), IPI00003479
T3 construct: determined in kinobeads assays with mass spectrometry detection of kinases as described previously; endogenous in cells; host or cells: cell lysate
Text: as §1

[4] = target: T4, kinases (kinome) (Homo sapiens, UniProt P29597); settings: TYK2 (TK), IPI00022353
T4 construct: determined in kinobeads assays with mass spectrometry detection of kinases as described previously; endogenous in cells; host or cells: cell lysate
Text: as §1

[5] = target: T5, kinases (kinome) (Homo sapiens, UniProt P42680); settings: TEC (TK), IPI00000878
T5 construct: determined in kinobeads assays with mass spectrometry detection of kinases as described previously; endogenous in cells; host or cells: cell lysate
T5 sequence (P42680 1-631): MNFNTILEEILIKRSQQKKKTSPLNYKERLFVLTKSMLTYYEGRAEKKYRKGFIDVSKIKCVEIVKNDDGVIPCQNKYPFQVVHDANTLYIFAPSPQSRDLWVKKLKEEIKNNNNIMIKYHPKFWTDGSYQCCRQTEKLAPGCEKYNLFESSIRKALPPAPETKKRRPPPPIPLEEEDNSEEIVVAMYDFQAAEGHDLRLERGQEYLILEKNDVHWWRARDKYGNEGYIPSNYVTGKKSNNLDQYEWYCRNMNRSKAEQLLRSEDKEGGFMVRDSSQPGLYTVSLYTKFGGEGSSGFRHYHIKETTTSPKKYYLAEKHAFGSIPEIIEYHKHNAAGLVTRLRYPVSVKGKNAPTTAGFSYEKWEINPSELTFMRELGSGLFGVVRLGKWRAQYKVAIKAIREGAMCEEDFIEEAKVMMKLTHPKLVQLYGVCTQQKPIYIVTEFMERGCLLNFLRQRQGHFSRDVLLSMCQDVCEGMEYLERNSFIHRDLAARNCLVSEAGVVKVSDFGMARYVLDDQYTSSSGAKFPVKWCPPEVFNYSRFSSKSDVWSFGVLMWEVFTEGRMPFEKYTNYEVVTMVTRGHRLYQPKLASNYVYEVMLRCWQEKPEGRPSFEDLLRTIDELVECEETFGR
Text: as §1

[6] = target: T6, kinases (kinome) (Homo sapiens, UniProt P45984); settings: JNK2 (CMGC), IPI00303550
T6 construct: determined in kinobeads assays with mass spectrometry detection of kinases as described previously; endogenous in cells; host or cells: cell lysate
Text: as §1

[7] = target: T7, kinases (kinome) (Homo sapiens, UniProt P78527); settings: DNAPK (Atypical), IPI00296337
T7 construct: determined in kinobeads assays with mass spectrometry detection of kinases as described previously; endogenous in cells; host or cells: cell lysate
Text: as §1

[8] = target: T8, kinases (kinome) (Homo sapiens, UniProt Q00534); settings: CDK6 (CMGC), IPI00023529
T8 construct: determined in kinobeads assays with mass spectrometry detection of kinases as described previously; endogenous in cells; host or cells: cell lysate
Text: as §1

[9] = target: T9, kinases (kinome) (Homo sapiens, UniProt Q00535); settings: CDK5 (CMGC), IPI00023530
T9 construct: determined in kinobeads assays with mass spectrometry detection of kinases as described previously; endogenous in cells; host or cells: cell lysate
Text: as §1

[10] = target: T10, kinases (kinome) (Homo sapiens, UniProt Q06187); settings: BTK (TK), IPI00029132
T10 construct: determined in kinobeads assays with mass spectrometry detection of kinases as described previously; endogenous in cells; host or cells: cell lysate
Text: as §1

[11] = target: T11, kinases (kinome) (Homo sapiens, UniProt Q07912); settings: ACK (TK), IPI00552750
T11 construct: determined in kinobeads assays with mass spectrometry detection of kinases as described previously; endogenous in cells; host or cells: cell lysate
Text: as §1

[12] = target: T12, kinases (kinome) (Homo sapiens, UniProt Q08345); settings: DDR1 (TK), IPI00657861
T12 construct: determined in kinobeads assays with mass spectrometry detection of kinases as described previously; endogenous in cells; host or cells: cell lysate
Text: as §1

[13] = target: T13, kinases (kinome) (Homo sapiens, UniProt Q13043); settings: MST1 (STE), IPI00011488
T13 construct: determined in kinobeads assays with mass spectrometry detection of kinases as described previously; endogenous in cells; host or cells: cell lysate
T13 sequence (Q13043 1-487): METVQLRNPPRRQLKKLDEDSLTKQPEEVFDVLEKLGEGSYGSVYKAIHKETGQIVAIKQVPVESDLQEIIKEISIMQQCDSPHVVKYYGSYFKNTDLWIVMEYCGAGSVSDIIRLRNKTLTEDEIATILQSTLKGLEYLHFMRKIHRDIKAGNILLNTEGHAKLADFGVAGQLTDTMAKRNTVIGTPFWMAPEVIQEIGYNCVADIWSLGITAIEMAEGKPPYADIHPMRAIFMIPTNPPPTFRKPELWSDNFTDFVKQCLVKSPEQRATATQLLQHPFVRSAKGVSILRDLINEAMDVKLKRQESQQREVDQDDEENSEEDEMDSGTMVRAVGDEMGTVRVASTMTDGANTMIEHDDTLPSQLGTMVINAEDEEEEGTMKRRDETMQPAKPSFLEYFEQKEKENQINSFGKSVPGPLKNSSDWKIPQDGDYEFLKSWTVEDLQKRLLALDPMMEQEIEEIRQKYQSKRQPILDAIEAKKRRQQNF
Text: as §1

[14] = target: T14, kinases (kinome) (Homo sapiens, UniProt Q15059); settings: BRD3 (Atypical), IPI00014266
T14 construct: determined in kinobeads assays with mass spectrometry detection of kinases as described previously; endogenous in cells; host or cells: cell lysate
Text: as §1

[15] = target: kinases (kinome) (Homo sapiens, UniProt Q15418); settings: RSK3 (AGC), IPI00477982
Text: as §1

[16] = target: T15, kinases (kinome) (Homo sapiens, UniProt Q16512); settings: PKN1 (AGC), IPI00412672
T15 construct: determined in kinobeads assays with mass spectrometry detection of kinases as described previously; endogenous in cells; host or cells: cell lysate
Text: as §1

[17] = target: T16, kinases (kinome) (Homo sapiens, UniProt Q16539); settings: p38a (CMGC), IPI00221141
T16 construct: determined in kinobeads assays with mass spectrometry detection of kinases as described previously; endogenous in cells; host or cells: cell lysate
Text: as §1

[18] = target: T17, kinases (kinome) (Homo sapiens, UniProt Q9BVS4); settings: RIOK2 (Atypical), IPI00306406
T17 construct: determined in kinobeads assays with mass spectrometry detection of kinases as described previously; endogenous in cells; host or cells: cell lysate
Text: as §1

[19] = target: T18, kinases (kinome) (Homo sapiens, UniProt Q9H0K1); settings: QIK (CAMK), IPI00465291
T18 construct: determined in kinobeads assays with mass spectrometry detection of kinases as described previously; endogenous in cells; host or cells: cell lysate
Text: as §1

[20] = target: T19, kinases (kinome) (Homo sapiens, UniProt Q9NSY1); settings: BIKE (Other), IPI00337426
T19 construct: determined in kinobeads assays with mass spectrometry detection of kinases as described previously; endogenous in cells; host or cells: cell lysate
Text: as §1

[21] = target: T20, kinases (kinome) (Homo sapiens, UniProt Q9NYL2); settings: ZAK (TKL), IPI00329638
T20 construct: determined in kinobeads assays with mass spectrometry detection of kinases as described previously; endogenous in cells; host or cells: cell lysate
Text: as §1

T19 sequence (Q9NSY1 whole entry): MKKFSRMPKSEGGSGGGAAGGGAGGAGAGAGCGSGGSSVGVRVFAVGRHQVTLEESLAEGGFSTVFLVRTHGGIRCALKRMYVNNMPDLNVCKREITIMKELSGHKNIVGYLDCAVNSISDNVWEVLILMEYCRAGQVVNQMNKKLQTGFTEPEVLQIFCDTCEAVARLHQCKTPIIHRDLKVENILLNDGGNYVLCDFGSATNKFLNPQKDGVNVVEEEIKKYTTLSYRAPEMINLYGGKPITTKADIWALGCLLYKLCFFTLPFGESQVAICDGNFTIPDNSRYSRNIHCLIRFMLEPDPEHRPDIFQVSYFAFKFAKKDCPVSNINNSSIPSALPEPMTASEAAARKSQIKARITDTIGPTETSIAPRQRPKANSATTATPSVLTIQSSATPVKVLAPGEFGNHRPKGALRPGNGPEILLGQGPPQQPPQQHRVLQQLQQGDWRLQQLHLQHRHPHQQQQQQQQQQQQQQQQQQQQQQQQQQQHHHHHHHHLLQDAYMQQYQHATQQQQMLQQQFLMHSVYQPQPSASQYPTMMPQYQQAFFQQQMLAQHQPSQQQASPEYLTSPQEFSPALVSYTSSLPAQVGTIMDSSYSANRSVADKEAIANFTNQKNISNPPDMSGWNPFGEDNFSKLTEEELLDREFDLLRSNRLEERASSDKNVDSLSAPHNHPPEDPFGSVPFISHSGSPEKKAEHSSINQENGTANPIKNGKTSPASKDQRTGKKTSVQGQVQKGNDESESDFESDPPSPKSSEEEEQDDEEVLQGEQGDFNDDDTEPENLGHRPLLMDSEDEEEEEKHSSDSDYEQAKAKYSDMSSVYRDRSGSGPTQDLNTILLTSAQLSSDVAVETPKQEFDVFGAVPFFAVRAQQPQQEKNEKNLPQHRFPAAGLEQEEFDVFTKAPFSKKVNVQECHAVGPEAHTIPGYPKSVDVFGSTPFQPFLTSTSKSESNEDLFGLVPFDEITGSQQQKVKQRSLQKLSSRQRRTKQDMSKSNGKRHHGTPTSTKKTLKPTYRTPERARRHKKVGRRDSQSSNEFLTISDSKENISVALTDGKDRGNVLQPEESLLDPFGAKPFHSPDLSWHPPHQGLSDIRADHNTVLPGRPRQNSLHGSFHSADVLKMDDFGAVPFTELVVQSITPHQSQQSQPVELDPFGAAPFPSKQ
T4 sequence (P29597 whole entry): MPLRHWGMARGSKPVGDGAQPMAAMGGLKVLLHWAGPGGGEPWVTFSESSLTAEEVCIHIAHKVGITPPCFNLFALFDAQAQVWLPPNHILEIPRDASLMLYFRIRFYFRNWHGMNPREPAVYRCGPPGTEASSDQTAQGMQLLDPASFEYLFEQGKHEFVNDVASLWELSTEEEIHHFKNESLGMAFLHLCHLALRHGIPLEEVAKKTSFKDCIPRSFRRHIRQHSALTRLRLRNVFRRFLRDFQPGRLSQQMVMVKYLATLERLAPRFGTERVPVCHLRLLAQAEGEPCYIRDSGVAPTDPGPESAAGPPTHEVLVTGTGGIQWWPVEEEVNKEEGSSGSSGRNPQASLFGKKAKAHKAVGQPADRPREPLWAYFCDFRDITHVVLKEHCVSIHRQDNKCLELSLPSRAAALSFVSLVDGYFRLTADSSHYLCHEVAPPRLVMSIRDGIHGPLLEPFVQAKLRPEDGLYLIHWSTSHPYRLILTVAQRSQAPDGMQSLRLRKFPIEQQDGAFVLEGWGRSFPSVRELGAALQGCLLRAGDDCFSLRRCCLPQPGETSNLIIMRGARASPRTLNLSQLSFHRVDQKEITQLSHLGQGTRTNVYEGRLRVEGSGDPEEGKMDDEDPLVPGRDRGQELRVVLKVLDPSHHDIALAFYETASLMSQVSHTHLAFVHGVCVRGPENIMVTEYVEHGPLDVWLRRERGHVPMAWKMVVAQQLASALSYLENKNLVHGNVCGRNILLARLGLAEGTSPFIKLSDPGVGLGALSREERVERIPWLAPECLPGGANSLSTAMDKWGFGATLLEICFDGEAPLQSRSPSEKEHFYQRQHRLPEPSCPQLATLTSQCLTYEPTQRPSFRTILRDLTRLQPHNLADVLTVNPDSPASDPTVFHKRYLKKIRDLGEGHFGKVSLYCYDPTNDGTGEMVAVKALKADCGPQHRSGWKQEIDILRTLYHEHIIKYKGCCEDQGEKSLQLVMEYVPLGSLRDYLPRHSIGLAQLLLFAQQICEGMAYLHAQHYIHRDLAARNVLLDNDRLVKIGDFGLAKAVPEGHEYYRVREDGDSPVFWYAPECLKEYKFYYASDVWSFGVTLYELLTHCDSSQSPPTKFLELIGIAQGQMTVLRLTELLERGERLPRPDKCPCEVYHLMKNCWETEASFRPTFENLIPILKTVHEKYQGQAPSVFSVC
T17 sequence (Q9BVS4 whole entry): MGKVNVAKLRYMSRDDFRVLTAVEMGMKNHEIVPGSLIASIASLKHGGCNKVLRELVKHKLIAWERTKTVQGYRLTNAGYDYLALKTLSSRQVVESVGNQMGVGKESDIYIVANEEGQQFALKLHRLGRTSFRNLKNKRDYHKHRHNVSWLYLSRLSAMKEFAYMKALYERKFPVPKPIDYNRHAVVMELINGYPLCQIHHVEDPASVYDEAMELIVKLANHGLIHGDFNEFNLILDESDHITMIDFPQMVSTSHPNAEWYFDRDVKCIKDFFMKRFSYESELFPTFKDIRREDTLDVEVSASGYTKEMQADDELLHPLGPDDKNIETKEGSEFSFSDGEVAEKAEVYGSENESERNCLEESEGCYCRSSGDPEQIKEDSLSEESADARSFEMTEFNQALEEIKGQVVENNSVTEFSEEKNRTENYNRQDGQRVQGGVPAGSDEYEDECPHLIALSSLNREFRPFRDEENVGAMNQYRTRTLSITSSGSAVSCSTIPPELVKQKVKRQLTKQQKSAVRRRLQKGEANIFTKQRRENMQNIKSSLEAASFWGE
T15 sequence (Q16512 whole entry): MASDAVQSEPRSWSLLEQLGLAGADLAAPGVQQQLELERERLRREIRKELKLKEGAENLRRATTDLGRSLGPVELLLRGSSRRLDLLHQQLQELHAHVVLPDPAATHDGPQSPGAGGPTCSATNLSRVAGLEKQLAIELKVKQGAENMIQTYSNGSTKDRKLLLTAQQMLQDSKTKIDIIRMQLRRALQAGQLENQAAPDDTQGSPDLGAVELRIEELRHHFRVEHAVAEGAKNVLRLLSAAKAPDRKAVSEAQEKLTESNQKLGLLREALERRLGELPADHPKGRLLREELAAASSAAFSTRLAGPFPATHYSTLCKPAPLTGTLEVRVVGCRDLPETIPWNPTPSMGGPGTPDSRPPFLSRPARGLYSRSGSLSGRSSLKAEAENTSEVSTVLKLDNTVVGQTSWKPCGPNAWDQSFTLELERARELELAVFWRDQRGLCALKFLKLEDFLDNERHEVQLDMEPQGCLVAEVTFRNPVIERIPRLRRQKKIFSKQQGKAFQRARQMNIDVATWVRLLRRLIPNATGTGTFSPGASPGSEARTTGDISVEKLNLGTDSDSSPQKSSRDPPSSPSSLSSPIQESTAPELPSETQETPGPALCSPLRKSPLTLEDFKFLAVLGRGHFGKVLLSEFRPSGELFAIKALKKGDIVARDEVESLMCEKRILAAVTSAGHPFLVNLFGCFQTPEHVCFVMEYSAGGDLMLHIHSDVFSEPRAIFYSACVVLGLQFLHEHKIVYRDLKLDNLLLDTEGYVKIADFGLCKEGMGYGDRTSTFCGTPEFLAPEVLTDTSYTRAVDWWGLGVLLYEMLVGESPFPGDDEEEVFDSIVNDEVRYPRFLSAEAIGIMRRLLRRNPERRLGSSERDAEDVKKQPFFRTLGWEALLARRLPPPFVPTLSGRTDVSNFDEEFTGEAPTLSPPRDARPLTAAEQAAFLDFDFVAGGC
Chain of kinases (kinome) (Homo sapiens, UniProt Q15418) (Q15418 whole entry): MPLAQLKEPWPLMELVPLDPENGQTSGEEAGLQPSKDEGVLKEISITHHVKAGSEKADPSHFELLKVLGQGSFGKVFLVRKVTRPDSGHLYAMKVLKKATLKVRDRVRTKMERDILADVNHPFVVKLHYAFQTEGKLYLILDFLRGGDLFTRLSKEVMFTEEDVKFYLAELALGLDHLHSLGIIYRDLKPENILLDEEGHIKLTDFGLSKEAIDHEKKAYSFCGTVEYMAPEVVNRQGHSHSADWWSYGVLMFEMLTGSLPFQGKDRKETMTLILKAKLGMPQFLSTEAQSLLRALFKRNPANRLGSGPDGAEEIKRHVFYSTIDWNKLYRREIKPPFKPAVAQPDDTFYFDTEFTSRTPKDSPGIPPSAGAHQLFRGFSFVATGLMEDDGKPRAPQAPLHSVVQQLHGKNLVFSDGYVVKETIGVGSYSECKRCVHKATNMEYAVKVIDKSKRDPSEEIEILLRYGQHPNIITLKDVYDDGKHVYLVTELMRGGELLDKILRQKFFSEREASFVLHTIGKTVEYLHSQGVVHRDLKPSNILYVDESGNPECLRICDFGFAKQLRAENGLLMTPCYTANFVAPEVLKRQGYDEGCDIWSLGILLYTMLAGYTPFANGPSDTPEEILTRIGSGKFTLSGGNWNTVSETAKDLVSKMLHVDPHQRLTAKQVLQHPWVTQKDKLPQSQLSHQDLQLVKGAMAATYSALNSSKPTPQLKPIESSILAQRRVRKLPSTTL
T3 sequence (P28482 whole entry): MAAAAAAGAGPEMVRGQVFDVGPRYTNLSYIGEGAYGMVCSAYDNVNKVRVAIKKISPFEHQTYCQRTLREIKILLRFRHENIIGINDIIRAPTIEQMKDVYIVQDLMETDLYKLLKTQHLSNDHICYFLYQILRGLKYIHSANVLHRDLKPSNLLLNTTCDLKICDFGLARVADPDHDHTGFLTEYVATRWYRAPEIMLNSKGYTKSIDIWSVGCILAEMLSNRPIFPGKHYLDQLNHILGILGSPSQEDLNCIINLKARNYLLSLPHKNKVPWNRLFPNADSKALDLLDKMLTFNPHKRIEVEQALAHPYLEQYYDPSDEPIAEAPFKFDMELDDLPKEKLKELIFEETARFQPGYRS

IC50 [1] [µM] | IC50 [2] [µM] | IC50 [3] [µM] | IC50 [4] [µM] | IC50 [5] [µM] | IC50 [6] [µM] | IC50 [7] [µM] | IC50 [8] [µM] | IC50 [9] [µM] | IC50 [10] [µM] | IC50 [11] [µM] | IC50 [13] [µM] | IC50 [14] [µM] | IC50 [15] [µM] | IC50 [16] [µM] | IC50 [17] [µM] | IC50 [18] [µM] | IC50 [19] [µM] | IC50 [20] [µM] | IC50 [21] [µM] | Structure (SMILES) | other results
> 10 | > 10 | > 10 | > 10 | > 10 | > 10 | > 10 | > 10 | > 10 | > 10 | > 10 | > 10 | > 10 | > 10 | > 10 | > 10 | > 10 | > 10 | > 10 | > 10 | C[C@H]1COCCN1c1cc(-c2ccccc2S(C)(=O)=O)nc(-c2ccc(NC(=O)NC3CC3)cc2)n1 [Example 6, (S)-1-cyclopropyl-3-(4-(4-(3-methylmorpholino)-6-(2-(methylsulfonyl)phenyl)pyrimidin-2-yl)phenyl)urea] | IC50 [12]: > 10 µM
> 10 | > 10 | > 10 | > 10 | > 10 | > 10 | > 10 |  | > 10 | > 10 | > 10 | > 10 | > 10 | > 10 | > 10 | > 10 | > 10 | > 10 | > 10 | > 10 | CCNC(=O)Nc1ccc(-c2cc(-c3ccccc3C#N)nc(N3CCOC[C@@H]3C)n2)cc1 [Example 8, (S)-1-(4-(6-(2-cyanophenyl)-2-(3-methylmorpholino)pyrimidin-4-yl)phenyl)-3-ethylurea] | 
> 10 | > 10 | > 10 | > 10 | > 10 | > 10 | > 10 | > 10 | > 10 | > 10 | > 10 | > 10 | > 10 | > 10 | > 10 | > 10 | > 10 | > 10 | > 10 | > 10 | C[C@H]1COCCN1c1nc(-c2ccc(NC(=O)NC3CC3)cc2)cc(-c2ccccc2S(C)(=O)=O)n1 [Example 4, (S)-1-cyclopropyl-3-(4-(2-(3-methylmorpholino)-6-(2-(methylsulfonyl)phenyl)pyrimidin-4-yl)phenyl)urea] | IC50 [12]: > 10 µM
